Laboratory results published in US20150232509A1, “SPIRO RING COMPOUNDS AS HEPATITIS C VIRUS (HCV) INHIBITORS” (SUNSHINE LAKE PHARMA CO., LTD., priority 2012, published 2015).

Assays:
HCV GT1a replicon cells = assay: HCV Replicon assay, GT1a replicon cells (Luciferase / NEO qPCR); assay type: cell-based; details: Hepatitis C virus, 72 hours incubation, read-out: EC50 against HCV 1a genotype
Experimental: (§1) An HCV Replicon assay was utilized in the present invention, and was prepared, developed and validated as described in Science, 1999, 285 (5424), 110-3 and J. Virol., 2003, 77 (5), 3007-19.
(§2) HCV GT1a, GT1b and GT2a replicon cells were used to test the currently described compound series as well as wild-type cells HCV 1b and resistant cells Y93H, L31F, P32L and 1302V. […]
(§3) The GT1a cells and GT1b cells were seeded into 96-well plates (8,000 cells in 125 μL/well) respectively; each compound was diluted to desired concentration using 5-fold serial dilutions protocol, 10 doses in duplicate, and added to wells with POD™ 810 Plate Assembler. The final concentration of DMSO was 0.5%; the plates were incubated in a CO2 incubator for 72 hours; after that, 40 μL of Luciferase assay substrate (Promega Bright-Glo) was added to each well, and detected by a chemiluminescence detection system (Topcount Microplate Scintillation and Luminescence Counter) 5 minutes later; data analysis.
(§4) The GT1a cells and GT1b cells were seeded into 96-well plates (8,000 cells in 125 μL/well) respectively; each compound was diluted to desired concentration using 5-fold serial dilutions protocol, 10 doses in duplicate, and added to wells with POD™ 810 Plate Assembler., the final concentration of DMSO was 0.5%; the cells were incubated in a CO2 incubator for 72 hours; quantitative PCR. • Sample preparation: the supernatant was removed, 100 μL of FCW buffer solution was added to each well, washed carefully and discarded the solution; 50 μL of lysate FCP was added to each well, the cells was lysed as PCR template and PCR template was diluted with DEPC water as sample template. • Quantitative PCR: preparation of reaction mixture according to PCR system; the reaction mixture was dispensed into a 384-well PCR reaction plate (specially for quantitative); and a standard template which was diluted in proportion was distributed into the plate; and the sample template was distributed into the plate; then the 384-well plate was sealed with closure plate membrane; the […] PCR machine was operated by procedures; data analysis. 3. Data Processing: the EC50 Values of Compounds were Analyzed by GraphPad Prism Software.

HCV GT1b replicon cells = assay: HCV Replicon assay, GT1b replicon cells (Luciferase / NEO qPCR); assay type: cell-based; details: Hepatitis C virus, 72 hours incubation, read-out: EC50 against HCV 1b genotype
Experimental: as §1, §2, §3, §4

| SMILES | EC50 (HCV GT1a replicon cells) [nM] | EC50 (HCV GT1b replicon cells) [nM] |
| --- | --- | --- |
| C=C([C@@H](NC(=O)OC)C(C)C)N1CC(C)(C)C[C@H]1c1ncc(-c2ccc(-c3ccc(-c4cnc([C@@H]5CC(C)(C)CN5C(=O)[C@@H](NC(=O)OC)C(C)C)[nH]4)cc3)c3c2CCC32CCCC2)[nH]1 [Example 18] | 0.458 | 0.203 |
| COC(=O)N[C@H](C(=O)N1CC(F)(F)C[C@H]1c1nc(-c2ccc(-c3ccc(-c4cnc([C@@H]5CC(F)(F)CN5C(=O)[C@@H](NC(=O)OC)C(C)C)[nH]4)c4c3C3(CCOCC3)CC4)cc2)c[nH]1)C(C)C [Example 42] | 6.89 | 0.109 |
| COC(=O)N[C@H](C(=O)N1CCS[C@H]1c1ncc(-c2ccc(-c3ccc(-c4cnc([C@@H]5SCCN5C(=O)[C@@H](NC(=O)OC)C(C)C)[nH]4)c4c3C3(CCCC3)CC4)cc2)[nH]1)C(C)C [Example 28] | 4.57 | 0.667 |
| COC(=O)N[C@H](C(=O)N1CCC[C@H]1c1nc(-c2ccc(-c3ccc(-c4ccc5nc([C@@H]6CCCN6C(=O)[C@@H](NC(=O)OC)C(C)C)[nH]c5c4)c4c3CCC43CCCC3)c3c2CCC3)c[nH]1)C(C)C [Example 36] | 1.08 | 0.089 |
| COC(=O)N[C@H](C(=O)N1CCC[C@H]1c1ncc(-c2ccc(-c3ccc(-c4ccc5nc([C@@H]6CCCN6C(=O)[C@@H](NC(=O)OC)C(C)C)[nH]c5c4)c4c3CCC43CCCC3)c3cnoc23)[nH]1)C(C)C [Example 46] | 0.388 | 0.118 |
| COC(=O)N[C@H](C(=O)N1CCCC[C@H]1c1ncc(-c2ccc(-c3ccc(-c4cnc([C@@H]5CCCCN5C(=O)[C@@H](NC(=O)OC)C(C)C)[nH]4)c4c3C3(CCCC3)CC4)cc2)[nH]1)C(C)C [Example 26] | 13.7 | 0.088 |
| COC(=O)N[C@H](C(=O)N1CCC[C@H]1c1ncc(-c2ccc(-c3ccc(-c4ccc5nc([C@@H]6CCCN6C(=O)[C@@H](NC(=O)OC)C(C)C)[nH]c(=O)c5c4)c4c3C3(CCCC3)CC4)cc2)[nH]1)C(C)C [Example 38] | 0.066 | 0.009 |
| COC(=O)N[C@H](C(=O)N1CC(C)=C[C@H]1c1ncc(-c2ccc(-c3ccc(-c4cnc([C@@H]5C=C(C)CN5C(=O)[C@@H](NC(=O)OC)C(C)C)[nH]4)c4c3C3(CCCC3)CC4)cc2)[nH]1)C(C)C [Example 35] | 0.518 | 0.086 |
| COC(=O)N[C@H](C(=O)N1CCC[C@H]1c1ncc(-c2ccc3cc(-c4ccc(-c5cnc([C@@H]6CCCN6C(=O)[C@@H](NC(=O)OC)C(C)C)[nH]5)c5c4C4(CCCC4)CC5)ccc3c2)[nH]1)C(C)C [Example 30] | 3.2 | 0.074 |
| COC(=O)N[C@H](C(=O)N1C2CC2C[C@H]1c1ncc(-c2ccc(-c3ccc(-c4ccc(-c5cnc([C@@H]6CC7CC7N6C(=O)[C@@H](NC(=O)OC)C(C)C)[nH]5)cc4)c4c3CCC43CCCC3)cc2)[nH]1)C(C)C (some centres unmarked) [Example 23] | 0.334 | 0.012 |
| COC(=O)N[C@H](C(=O)N1CCC[C@H]1c1ncc(-c2ccc(-c3ccc(-c4ccc5nc([C@@H]6CCCN6C(=O)[C@@H](NC(=O)OC)C(C)C)[nH]c5c4)c4c3CCC43CCCC3)c3ccccc23)[nH]1)C(C)C [Example 37] | 3.78 | 0.099 |
| COC(=O)N[C@H](C(=O)N1CCC[C@H]1c1ncc(-c2ccc(-c3ccc(-c4cnc([C@@H]5CCCN5C(=O)[C@@H](NC(=O)OC)C(C)C)[nH]4)c4c3C3(CC4)CCN(C)C3)cc2)[nH]1)C(C)C (some centres unmarked) [Example 48] | 3.08 | 0.24 |
| COC(=O)N[C@@H](C)C(=O)N1CCC[C@H]1c1ncc(-c2ccc(-c3ccc(-c4cnc([C@@H]5CCCN5C(=O)[C@H](C)NC(=O)OC)[nH]4)c4c3C3(CCCC3)CC4)cc2)[nH]1 [Example 12] | 0.856 | 0.018 |
| COC(=O)N[C@H](C(=O)N1C2CCC(C2)[C@H]1c1ncc(-c2ccc(-c3ccc(-c4cnc([C@@H]5C6CCC(C6)N5C(=O)[C@@H](NC(=O)OC)C(C)C)[nH]4)c4c3C3(CCCC3)CC4)cc2)[nH]1)C(C)C (some centres unmarked) [Example 25] | 10.7 | 0.032 |
| COC(=O)NC(C(=O)N1CCCC1c1nc2cc(-c3ccc(-c4ccc5[nH]c(C6CCCN6C(=O)C(NC(=O)OC)C(C)C)nc5c4)c4c3CCC43CCCC3)ccc2[nH]1)C(C)C (centres unmarked) [Example 53] | 0.263 | 0.074 |
| COC(=O)N[C@@H](C)C(=O)N1CCCC[C@H]1c1ncc(-c2ccc(-c3ccc(-c4cnc([C@@H]5CCCCN5C(=O)[C@H](C)NC(=O)OC)[nH]4)c4c3C3(CCCC3)CC4)cc2)[nH]1 [Example 27] | 12.7 | 0.655 |
| COC(=O)NC(C(=O)N1CCCC1c1nc(-c2ccc(-c3ccc(-c4c[nH]c(C5CCCN5C(=O)C(NC(=O)OC)C(C)C)n4)c4c3C3(CCCC3)CC4)cc2)c[nH]1)C(C)C (centres unmarked) [Example 54] | 3.57 | 0.044 |
| COC(=O)NC(C(=O)N1CCCC1c1ncc(-c2ccc(-c3ccc(-c4ccc5[nH]c(C6CCCN6C(=O)C(NC(=O)OC)C(C)C)nc5c4)c4c3C3(CCCC3)CC4)cc2)[nH]1)C(C)C (centres unmarked) [Example 55] | 0.073 | 0.028 |
| COC(=O)N[C@H](C(=O)N1CCC[C@H]1c1ncc(-c2ccc(-c3ccc(-c4ccc5nc([C@@H]6CCCN6C(=O)[C@@H](NC(=O)OC)C(C)C)[nH]c5c4)cc3)c3c2CCC32CCCC2)[nH]1)C(C)C [Example 29] | 8.68 | 0.218 |
| CCC(C)[C@H](NC(=O)OC)C(=O)N1CCC[C@H]1c1nc2ccc(-c3ccc(-c4ccc(-c5cnc([C@@H]6CCCN6C(=O)[C@@H](NC(=O)OC)C(C)C)[nH]5)cc4)c4c3CCC43CCCC3)cc2[nH]1 (some centres unmarked) [Example 9] | 0.097 | 0.032 |
| COC(=O)N[C@H](C(=O)N1CCC[C@H]1C1=Nc2ccc(-c3cnc(-c4ccc(-c5cnc([C@@H]6CCCN6C(=O)[C@@H](NC(=O)OC)C(C)C)[nH]5)cc4)c4c3CCC43CCCC3)cc2S(=O)(=O)N1)C(C)C [Example 39] | 0.027 | 0.02 |
| CC(C)[C@H](NC(=O)N1CCOCC1)C(=O)N1CCC[C@H]1c1ncc(-c2ccc(N3CCC(c4cnc([C@@H]5CCCN5C(=O)[C@@H](NC(=O)N5CCOCC5)C(C)C)[nH]4)CC3)c3c2CCC32CCCC2)[nH]1 [Example 8] | 5.44 | 1.33 |
| COC(=O)N[C@H](C(=O)N1CCC[C@H]1c1ncc(-c2ccc(-c3ccc(-c4cnc([C@@H]5CCCN5C(=O)[C@@H](NC(=O)OC)C(C)C)[nH]4)c4c3C3(CCCN3C)CC4)cc2)[nH]1)C(C)C (some centres unmarked) [Example 49] | 23.6 | 0.357 |
| COC(=O)N[C@H](C(=O)N1CCC[C@H]1c1ncc(-c2ccc(-c3ccc(-c4ccc5[nH]c([C@@H]6CCCN6C(=O)[C@@H](NC(=O)OC)C(C)C)nc5c4)c4c3CCC43CCCC3)cc2)[nH]1)C(C)C [Example 4] | 0.085 | 0.029 |
| COC(=O)N[C@H](C(=O)N1CCC[C@H]1c1ncc(C#Cc2ccc(C#Cc3cnc([C@@H]4CCCN4C(=O)[C@@H](NC(=O)OC)C(C)C)[nH]3)c3c2CCC32CCCC2)[nH]1)C(C)C [Example 7] | 0.955 | 0.106 |
